Experimental findings from PubChem BioAssay AID1918941 (Molecular Pharmacology Branch, DTP, NCI, 2023) are described below.

The test concerns SW 1271 complex spheroids, viability. Nature of the test: Anticancer human tumor SW 1271 cell line growth inhibition [LSD1].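 As to all read-outs here: spheroids exposed to agents for 7 days before luminescence read.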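 As to viability, T/C: 100% = DMSO vehicle control viability.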 The note with it: for viability, T/C: stronger effect = lower value. The method in brief:
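Complex spheroids of tumor cells with HUVEC and human MSCs, exposed to iadademstat combined with other agents. Each agent tested in half-log steps from near clinical Cmax (else 10 microM top), DMSO ≤0.25%.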

Where [1] appears, read: curve of first compound, second compound 0.1 µM.
Setting [2] is: curve of first compound, second compound 0.316 µM.
Setting [3] is: curve of first compound, second compound 1 µM.
Setting [4] is: curve of first compound, second compound 3.16 µM.
Setting [5] is: curve of first compound, second compound 10 µM.
The mark [6] stands for this setting: second compound 0.1 µM, first compound 0.0316 µM.
Setting [7] is: second compound 0.1 µM, first compound 0.1 µM.
Where [8] appears, read: second compound 0.1 µM, first compound 0.316 µM.
Setting [9] is: second compound 0.1 µM, first compound 1 µM.
[10] abbreviates: second compound 0.316 µM, first compound 0.0316 µM.
Setting [11] is: second compound 0.316 µM, first compound 0.1 µM.
The mark [12] stands for this setting: second compound 0.316 µM, first compound 0.316 µM.
The mark [13] stands for this setting: second compound 0.316 µM, first compound 1 µM.
The mark [14] stands for this setting: second compound 1 µM, first compound 0.0316 µM.
Where [15] appears, read: second compound 1 µM, first compound 0.1 µM.
[16] abbreviates: second compound 1 µM, first compound 0.316 µM.
The mark [17] stands for this setting: second compound 1 µM, first compound 1 µM.
Setting [18] is: second compound 3.16 µM, first compound 0.0316 µM.
Where [19] appears, read: second compound 3.16 µM, first compound 0.1 µM.
The mark [20] stands for this setting: second compound 3.16 µM, first compound 0.316 µM.
Setting [21] is: second compound 3.16 µM, first compound 1 µM.
Setting [22] is: second compound 10 µM, first compound 0.0316 µM.
Setting [23] is: second compound 10 µM, first compound 0.1 µM.
The mark [24] stands for this setting: second compound 10 µM, first compound 0.316 µM.
Where [25] appears, read: second compound 10 µM, first compound 1 µM.

Where “and” joins values, the source holds several entries; their conditions need not be identical. Equal entries are not always repeated. Some results are limits rather than exact numbers.

For the compound `CC1COCCN1c1cc(C2(S(C)(=N)=O)CC2)nc(-c2ccnc3[nH]ccc23)n1` (centres undefined) + NC1CCC(NC2CC2c2ccccc2)CC1, the IC50 was over 10000 nM under setting [1]; 8630 nM under setting [2]; over 10000 nM under setting [3]; 9170 nM under setting [4]; 3280 nM under setting [5]. For the same compound, the viability, T/C under setting [6] was 108%; the viability, T/C under setting [7] is 103%; the viability, T/C under setting [8] is 111%; the viability, T/C under setting [9] was 76.2%; the viability, T/C (second compound 0.1 µM, first compound 3.16 µM) is 69.1%; the viability, T/C (second compound 0.1 µM, first compound 10 µM) is 58.8%. Moreover, the viability, T/C is, setting by setting: under setting [10], 100%; under setting [11], 95.8%; under setting [12], 99.1%; under setting [13], 81.7%; (second compound 0.316 µM, first compound 3.16 µM) 59.5%; (second compound 0.316 µM, first compound 10 µM) 48.3%. In addition, the viability, T/C is 94.5% under setting [14]; 101% under setting [15]; 85.1% under setting [16]; 68.2% under setting [17]; 72.3% (second compound 1 µM, first compound 3.16 µM); 53.7% (second compound 1 µM, first compound 10 µM). Further, the viability, T/C under setting [18] is 82.9%; the viability, T/C under setting [19] was 88.7%; the viability, T/C under setting [20] is 86.7%; the viability, T/C under setting [21] was 75.9%; the viability, T/C (second compound 3.16 µM, first compound 3.16 µM) was 73.4%; the viability, T/C (second compound 3.16 µM, first compound 10 µM) is 47.9%. Moreover, the viability, T/C reads like this: under setting [22], 97.4%; under setting [23], 92.3%; under setting [24], 71.1%; under setting [25], 78.4%; (second compound 10 µM, first compound 3.16 µM) 50.9%; (second compound 10 µM, first compound 10 µM) 19.4%.
In the case of `CC(C)c1c(-c2ccccc2)nc2c(C#N)c[nH]n2c1=O`, the viability, T/C is 85.1% and 98.1% (compound 0.0316 µM); 83.1% and 98.6% (compound 0.1 µM); 83.4% and 100% (compound 0.316 µM); 89.3% and 88.1% (compound 1 µM); 86.2% and 91.6% (compound 3.16 µM); 75.1% and 94.7% (compound 10 µM). Further, the IC50 (curve of compound) was over 10000 nM.
`CCN(c1cc(-c2ccc(CN3CCOCC3)cc2)cc(C(=O)NCc2c(C)cc(C)[nH]c2=O)c1C)C1CCOCC1`: the viability, T/C is 98.8% and 104% (compound 0.00949 µM); 116% and 109% (compound 0.03 µM); 90.8% and 91.2% (compound 0.0949 µM); 103% and 98.9% (compound 0.3 µM); 78.3% and 82.5% (compound 0.949 µM); 73.6% and 71.4% (compound 3 µM). Also, the IC50 (curve of compound) is over 3000 nM.
Take `CCc1c2c(nc3ccc(O)cc13)-c1cc3c(c(=O)n1C2)COC(=O)[C@]3(O)CC` + NC1CCC(NC2CC2c2ccccc2)CC1: the IC50 under setting [1] was 3.54 nM; the IC50 under setting [2] worked out at 1.7 nM; the IC50 under setting [3] is 3.54 nM; the IC50 under setting [4] was found to be 2.36 nM; the IC50 under setting [5] was found to be 1.83 nM. The viability, T/C (second compound 0.1 µM, first compound 0.000949 µM) is 59.3%; the viability, T/C (second compound 0.1 µM, first compound 0.003 µM) is 53.9%; the viability, T/C (second compound 0.1 µM, first compound 0.00949 µM) is 26.8%; the viability, T/C (second compound 0.1 µM, first compound 0.03 µM) is 8.08%; the viability, T/C (second compound 0.1 µM, first compound 0.0949 µM) was 5.77%; the viability, T/C (second compound 0.1 µM, first compound 0.3 µM) was 5.6%. Besides, the viability, T/C by setting is: (second compound 0.316 µM, first compound 0.000949 µM) 57.5%; (second compound 0.316 µM, first compound 0.003 µM) 42.2%; (second compound 0.316 µM, first compound 0.00949 µM) 26%; (second compound 0.316 µM, first compound 0.03 µM) 9.7%; (second compound 0.316 µM, first compound 0.0949 µM) 8.55%; (second compound 0.316 µM, first compound 0.3 µM) 3.31%. Also, the viability, T/C reads like this: (second compound 1 µM, first compound 0.000949 µM) 56.9%; (second compound 1 µM, first compound 0.003 µM) 52.8%; (second compound 1 µM, first compound 0.00949 µM) 31.5%; (second compound 1 µM, first compound 0.03 µM) 8.11%; (second compound 1 µM, first compound 0.0949 µM) 5.83%; (second compound 1 µM, first compound 0.3 µM) 3.46%. The viability, T/C is 57.8% (second compound 3.16 µM, first compound 0.000949 µM); 46.5% (second compound 3.16 µM, first compound 0.003 µM); 26.4% (second compound 3.16 µM, first compound 0.00949 µM); 7.18% (second compound 3.16 µM, first compound 0.03 µM); 5.59% (second compound 3.16 µM, first compound 0.0949 µM); 19.2% (second compound 3.16 µM, first compound 0.3 µM). The viability, T/C (second compound 10 µM, first compound 0.000949 µM) is 52.4%; the viability, T/C (second compound 10 µM, first compound 0.003 µM) is 48%; the viability, T/C (second compound 10 µM, first compound 0.00949 µM) is 27.9%; the viability, T/C (second compound 10 µM, first compound 0.03 µM) was 7.16%; the viability, T/C (second compound 10 µM, first compound 0.0949 µM) was 5.27%; the viability, T/C (second compound 10 µM, first compound 0.3 µM) is 3.36%.
Consider `COc1cc(Nc2ncc3c(n2)-c2ccc(Cl)cc2C(c2c(F)cccc2OC)=NC3)ccc1C(=O)O` + NC1CC1c1ccc(-c2cccc(O)c2)cc1, for which the half-maximal inhibitory concentration (IC50) reads like this: under setting [1], 79.7 nM; under setting [2], 69 nM; under setting [3], 114 nM; under setting [4], 79 nM; under setting [5], 64.5 nM. In addition, the viability, T/C reads like this: (second compound 0.1 µM, first compound 0.00316 µM) 75.8%; (second compound 0.1 µM, first compound 0.01 µM) 69.2%; under setting [6], 67.3%; under setting [7], 43.5%; under setting [8], 29%; under setting [9], 13.3%. In addition, the viability, T/C (second compound 0.316 µM, first compound 0.00316 µM) was 62.6%; the viability, T/C (second compound 0.316 µM, first compound 0.01 µM) is 69.7%; the viability, T/C under setting [10] was 58.2%; the viability, T/C under setting [11] is 43%; the viability, T/C under setting [12] was 31.4%; the viability, T/C under setting [13] was 13.1%. The viability, T/C runs as follows: (second compound 1 µM, first compound 0.00316 µM) 68.4%; (second compound 1 µM, first compound 0.01 µM) 67.3%; under setting [14], 73.6%; under setting [15], 48.1%; under setting [16], 31%; under setting [17], 11.6%. For the same compound, the viability, T/C (second compound 3.16 µM, first compound 0.00316 µM) was 60.1%; the viability, T/C (second compound 3.16 µM, first compound 0.01 µM) is 55.7%; the viability, T/C under setting [18] is 67.7%; the viability, T/C under setting [19] was 43.4%; the viability, T/C under setting [20] is 28.6%; the viability, T/C under setting [21] was 13.7%. In addition, the viability, T/C by setting is: (second compound 10 µM, first compound 0.00316 µM) 65.6%; (second compound 10 µM, first compound 0.01 µM) 59.1%; under setting [22], 61.2%; under setting [23], 43%; under setting [24], 29.6%; under setting [25], 17.2%.

As usually defined, the IC50 is the concentration that gives 50% inhibition. The term viability, T/C denotes the ratio of treated to control.
